Test results from patent US5371102A, “Compositions and methods of inhibiting thyroid activity” (priority 1993, dated 1994).
Entries after “also recorded” stand apart in the source; their conditions may differ. Read-outs that look alike come from different tables or passages of the source.

Experiments:
LPX [1] = target: T1, LPX (Bos taurus, UniProt P80025); assay: LPX-catalyzed iodide ion oxidation (triiodide formation); assay type: biochemical, bovine
T1 construct: purchased Sigma Chemical Company
Description: Materials used in the examples below were obtained from the following sources. Bovine LPX, bovine liver catalase, glucose oxidase, 30% hydrogen peroxide, glucose, guaiacol, ABTS and deuterium oxide were purchased from Sigma Chemical Company. Selenium dioxide, MBI ^13 CH3 I and PBA were purchased from Aldrich Chemical Company and PBA was purified as previously described by Fieset et al., Reagents for Organic Synthesis, Vol. I, pp.135-139, John Wiley and Sons, N.Y. (1967). LPX purity was checked by PAGE, as described by Doerge, D.R., et al. in, Biochem. Pharmacol., Vol.36, pp.972-974 (1986). TPX was purified from hog thyroids obtained from a local slaughterhouse by published procedures. Doerge & Takazowa, Chemical Research in Toxicology, Vol. 3, pp. 98-101 (1990). TPX purity was determined by LC and its concentration determined spectophotometrically. Hydroperoxide concentrations were determined by iodometric titration, as described by Kolthoff, et al., in "Quantitative Chemical Analysis", Macmillan, London, pp.842-860 (1969). MMBI, and BI were synthesized by published procedures as described by Doerge, D.R., Biochem, Vol. 27, pp. 3697-3700 (1988) and were recrystallized from aqueous ethanol. MeBI was purified by distillation and DMeBI^+ was synthesized and purified by recrystallization from ethyl acetate/methanol. 1-^13 C-MMBI was synthesized from ^13 CH3 I according to the procedure disclosed by Doerge, D.R., in, J. Lab. Comp. and Radiopharm., Vol.25, pp.985-990 (1988). PPHP and PPA were prepared, purified and analyzed as previously described by Doerge, Biochem, Vol.27, p.11 (1988). The methyl ester of 1-methyl-benzimidazole-2-sulfinic acid was prepared by addition of hydrogen peroxide (5 equivalents of a 10 M solution) to MMBI (0.1 M) in methanol. […]
Inhibition of LPX activity by thiones was determined from the kinetics of iodide ion, guaiacol or ABTS oxidation assays conducted at 25° C. Kinetic parameters of suicide inactivation were determined as previously described. […]

LPX [2] = target: T1, LPX; assay: LPX iodide ion oxidation activity after incubation and dilution; assay type: biochemical, bovine; conditions: for remaining activity at 100 µM: 100 μM DMMBI, 100 s at 25° C., 200-fold dilution, n=4, read-out: Rate (% of control)
Description: Materials used in the examples below were obtained from the following sources. Bovine LPX, bovine liver catalase, glucose oxidase, 30% hydrogen peroxide, glucose, guaiacol, ABTS and deuterium oxide were purchased from Sigma Chemical Company. Selenium dioxide, MBI ^13 CH3 I and PBA were purchased from Aldrich Chemical Company and PBA was purified as previously described by Fieset et al., Reagents for Organic Synthesis, Vol. I, pp.135-139, John Wiley and Sons, N.Y. (1967). LPX purity was checked by PAGE, as described by Doerge, D.R., et al. in, Biochem. Pharmacol., Vol.36, pp.972-974 (1986). TPX was purified from hog thyroids obtained from a local slaughterhouse by published procedures. Doerge & Takazowa, Chemical Research in Toxicology, Vol. 3, pp. 98-101 (1990). TPX purity was determined by LC and its concentration determined spectophotometrically. Hydroperoxide concentrations were determined by iodometric titration, as described by Kolthoff, et al., in "Quantitative Chemical Analysis", Macmillan, London, pp.842-860 (1969). MMBI, and BI were synthesized by published procedures as described by Doerge, D.R., Biochem, Vol. 27, pp. 3697-3700 (1988) and were recrystallized from aqueous ethanol. MeBI was purified by distillation and DMeBI^+ was synthesized and purified by recrystallization from ethyl acetate/methanol. 1-^13 C-MMBI was synthesized from ^13 CH3 I according to the procedure disclosed by Doerge, D.R., in, J. Lab. Comp. and Radiopharm., Vol.25, pp.985-990 (1988). PPHP and PPA were prepared, purified and analyzed as previously described by Doerge, Biochem, Vol.27, p.11 (1988). The methyl ester of 1-methyl-benzimidazole-2-sulfinic acid was prepared by addition of hydrogen peroxide (5 equivalents of a 10 M solution) to MMBI (0.1 M) in methanol. The products, MeBI and the ester, were obtained following preparative TLC on silica (Uniplate, Analtech Co., Newark, DL) using 5% methanol/chloroform as eluant.
The following experiment was performed to determine the effect of DMMBI oxidation on LPX activity. LPX (0.1 μM, final concentration) was incubated with hydrogen peroxide (100 μM), iodide ion (5 mM) and DMMBI (100 μM), as indicated in Table 2. After a 100 second incubation at 25° C., an aliquot was diluted 200-fold and the iodide ion oxidation activity determined. Values shown in Table 2, are averages +/- standard deviations (n=4) of the percentage relative to untreated LPX.

[3] = chemical oxidation stoichiometry of thiones; assay type: physicochemical
Method: Oxidation stoichiometries were determined for the thione compounds MBI, MMBI and DMMBI by incubating the thiones with varying amounts of PBA (0-250μM). The rapid reaction (t1/2 <10 s at 25° C.) of benzimidazole-2-thiones with PBA in methanol provided a convenient method for determining oxidation stoichiometry.
Oxidation stoichiometries were determined spectrophoto, metrically, using a Hewlett Packard 8452A diode array spectrophotometer, by measuring thione concentration at 305 nm as a function of PBA concentration. Hydroperoxide content was determined iodometrically. Stoichiometries of substrate consumption/product formation were also determined by addition of limiting amounts of PBA to 100 μM MBI or MMBI in 50% methanol/pH 7 phosphate. The disappearance of thione and the production of BI, MeBI and bisulfite ion was determined after one hour at 25° C. The production of bisulfite ion was measured […]. The production of sulfate ion was determined by ion chromatography using a AS4A column (Dionex Co., Sunnyvale, CA) with a Dionex Gradient Pump Module and a Dionex CDM II conductivity detector equipped with an AMMS suppressor using 3 mM carbonate/bicarbonate buffer pH 10 as eluant at 2.0 ml/min. Reaction products were also monitored by ^1 H NMR performed at 300 MHz using a Nicolet NT300 or General Electric QE300 spectrometer DSS as a reference.

Cn1c(=S)n(C)c2ccccc21 [DMMBI, 1,3-dimethylbenzimidazole-2-thione]
inhibition of iodide ion oxidation (triiodide formation) (LPX [1]; LPX, H2O2, iodide ion): marked inhibition of iodide ion oxidation; also recorded: inhibits only iodide ion oxidation
lag period (LPX [1]; dependence on DMMBI concentration): proportional to the concentration of DMMBI
remaining activity at 100 µM (LPX [2]; LPX + DMMBI): 100 ± 4%
remaining activity at 100 µM (LPX [2]; LPX + H2O2 + DMMBI + I-): 107 ± 6%
remaining activity at 100 µM (LPX [2]; LPX + H2O2 + DMMBI): 104 ± 6%
loss of enzymatic activity (LPX [2]; LPX/hydrogen peroxide, absence of iodide ion): did not cause any loss of enzymatic activity
loss of enzymatic activity (LPX [2]; iodide ion present, DMMBI converted to DMeBI+, 1/200 dilution): no loss of enzymatic activity was detected
equivalents of oxidant required ([3]; PBA or hydrogen peroxide, aqueous medium, products DMeBI+ and sulfate): 3 equivalents
moles of oxidant required for total reaction ([3]; PBA, FIG. 4): three
equivalents of hydroperoxide required per mole of thione ([3]; hydroperoxides): 3 equivalents
